The values that follow come from PubChem BioAssay (NCI).

Common to all, as to experiment: NCI tumour cell line growth inhibition, 48 h
The test system of test [1] is A498 renal.
Test [2] deals with UO-31 renal.
The test system of test [3] is EKVX NSCLC.
For test [4], the system named is ACHN renal.
For test [5], the system named is CCRF-CEM leukemia.
Test [6] concerns HCT-15 colon.
The test system of test [7] is HCT-116 colon.
Test [8] deals with SF-268 CNS.
The subject of test [9] is HT29 colon.
Test [10] relates to KM12 colon.

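Where inhibition never reached the appropriate level, the endpoint shown equals the highest concentration tested. Otherwise, values were interpolated linearly from a five-concentration, 48-hour dose response in 96-well plates. The concentration for 50% growth inhibition is given as GI50. At the TGI there is no net growth.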 Where only a bound is given, the exact number is not on record here.

On to `O=C(Nc1ccc(-c2nc(-c3cccc(OCCN4CCOCC4)c3)c(-c3ccnc(Br)c3)[nH]2)cc1)c1ccccc1`, for which the GI50 in test [1] is 1.49 µM; in test [2] it was 2 µM; in [3], 2.01 µM; in test [4], 3.55 µM; in [5], 2.18 µM; in test [6] it was 0.72 µM. Besides, the GI50 in test [7] is 2.58 µM; in test [8], 3.82 µM. Further, the TGI in test [1] is 3.96 µM; in test [2], 5.58 µM; in [3], 6.97 µM; in test [4], over 100 µM; in [5], over 100 µM; in test [6], 3.2 µM. Also, the TGI in test [7] and in [8] was over 100 µM each time.
In the case of `O=c1ncccn1C1OC(CO)C(O)C1O` (stereo unspecified), the TGI in test [1], in [2], in test [9], in [10], in test [3] and in test [4] was over 100 µM each time. For the same molecule, the TGI in test [5], in test [6], in test [7] and in test [8] was over 100 µM in each case.
Consider `C=C1C(=O)OC2CC(C)C3CC(O)OC(OCC)C3(C)CC12` (stereo unspecified), for which the TGI in test [1] was over 69.1 µM; in test [2], 53.7 µM; in [9] it was 38.5 µM; in [10], 42.6 µM; in test [3], over 62.2 µM; in test [4], 39.5 µM. Moreover, the TGI is over 100 µM in test [5], 21.3 µM in [6], 26 µM in test [7] and 34 µM in test [8].
`c1ccc2c(c1)oc1ccc3nsnc3c12`: the TGI in test [1], in test [2], in test [9], in test [10], in test [3] and in test [4] was over 100 µM throughout. The TGI in [5], in test [6], in test [7] and in [8] was over 100 µM in each case.
With `O=C(O)CCNCCCCNCCC(=O)O`, the TGI in [1], in [9], in test [10], in test [3], in [4] and in test [5] was over 100 µM each time. Moreover, the TGI in test [6], in test [7] and in test [8] was over 100 µM each time.
For `CCCCCC[C@H](C)Nc1nc2ccccc2c2occc12`, the GI50 in test [1] is 11.3 µM; in test [2], 4.55 µM; in test [9], 8.15 µM; in test [10] it was 10.6 µM; in test [3], 2.26 µM; in test [4], 11.7 µM. Besides, the GI50 in test [5] was 4.33 µM; in [6], 10.1 µM; in [7] it was 3.2 µM; in [8], over 100 µM. The TGI in [1] is 25.8 µM; in test [2], 19.2 µM; in test [9], over 100 µM; in test [10], 32.3 µM; in test [3], 7.04 µM; in [4], 23.9 µM. Besides, the TGI in test [5] is 21.1 µM; in test [6], 22 µM; in [7], 13.3 µM; in test [8], over 100 µM.
On to `COc1ccc(C(O)c2cc3c(N)c(C(=O)Nc4cccc(Cl)c4)sc3nc2C)cc1` (stereo unspecified), for which the GI50 was 0.659 µM in test [1]; 2.41 µM in test [2]; 1.08 µM in [9]; 1.1 µM in test [10]; 1.88 µM in [3]; 2.3 µM in test [4]. Moreover, the GI50 in test [5] is 1.13 µM; in [6] it was 1.18 µM; in test [7] it was 0.921 µM; in [8] it was 2.79 µM. Also, the TGI was 2.38 µM in [1]; over 56.2 µM in [2]; over 33.4 µM in test [9]; over 33.4 µM in test [10]; over 86.9 µM in test [3]; over 42.4 µM in test [4]. The TGI was over 100 µM in [5], over 49.2 µM in test [6], over 33.1 µM in test [7] and over 46.2 µM in test [8].
Regarding `C=CCC1=C(C)C[C@@H]2CCC(=O)C=C12`, the TGI in test [1], in test [2], in [9], in test [10], in test [3] and in test [4] was over 100 µM throughout. The TGI in test [5], in test [6], in test [7] and in [8] was over 100 µM throughout.
For the molecule `CCN(c1cc(-c2ccc(CN3CCOCC3)cc2)cc(C(=O)NCc2c(C)cc(C)[nH]c2=O)c1C)C1CCOCC1`, the GI50 in test [1] is 9.79 µM; in test [2], 14.9 µM; in test [9], 15.7 µM; in [10], 19.7 µM; in test [3] it was 33.6 µM; in test [4], 26 µM. The GI50 is 30.6 µM in test [5], 19.2 µM in test [6], 18.5 µM in test [7] and 26.2 µM in test [8]. Besides, the TGI in [1] was 37.2 µM; in test [2] it was over 51.3 µM; in test [9], 35.6 µM; in [10] it was 52 µM; in test [3], over 100 µM; in test [4], 74.9 µM. The TGI in [5] is over 85.4 µM; in test [6] it was 48.4 µM; in test [7] it was 40.3 µM; in test [8], over 93.6 µM.
For `Cc1nc2ccc(NC(=O)CCNC(=O)CCCc3ccc(CC(C(=O)O)C(=O)O)cc3)cc2s1`, the GI50 in test [1], in test [2], in [9], in test [10], in test [3] and in test [4] was over 100 µM in each case. Besides, the GI50 in test [5], in test [6], in test [7] and in test [8] was over 100 µM in each case. Also, the TGI in test [1], in test [2], in test [9], in test [10], in [3] and in test [4] was over 100 µM in each case. Also, the TGI in test [5], in test [6], in test [7] and in [8] was over 100 µM throughout.
In the case of `CC(C)CCCC(C)[C@H]1CCC2[C@@H]3CCC4Nc5c(cnn5-c5ccccc5)C[C@]4(C)C3CC[C@@]21C` (stereo partly specified), the TGI was over 100 µM in test [1]; 50.4 µM in test [2]; over 100 µM in test [9]; over 100 µM in test [10]; 79.8 µM in test [3]; over 100 µM in test [4]. Further, the TGI in test [5], in test [6], in [7] and in test [8] was over 100 µM in each case.
On to `C=CCO/N=C(\OC(=O)c1ccc([N+](=O)[O-])cc1)c1ccccc1`, for which the TGI in test [1], in test [2], in test [9], in test [10], in test [3] and in test [4] was over 100 µM in each case. In addition, the TGI in test [5], in [6] and in test [8] was over 100 µM each time.
Take `CN(C)CCSS(=O)(=O)O`: the TGI in [1], in test [2], in test [9], in test [10], in [3] and in test [4] was over 100 µM each time. Further, the TGI in [5], in test [6], in test [7] and in [8] was over 100 µM in each case.
For `CC(C)(C)OC(=O)NCCCn1c2c(c3ccccc3c1=O)C(=O)c1ccccc1-2`, the GI50 in test [1] is 46.1 µM; in test [2], 71.5 µM; in [10] it was 67 µM; in test [3], 38.9 µM; in [4], 14.3 µM; in test [5] it was over 100 µM. The GI50 was over 100 µM in test [6], 4.71 µM in test [7] and 4.56 µM in [8]. The TGI in [1] was over 100 µM; in test [2], over 100 µM; in test [10] it was over 100 µM; in test [3] it was over 100 µM; in [4], 67.9 µM; in [5] it was over 100 µM. Moreover, the TGI was over 100 µM in test [6], 17.8 µM in [7] and 17.7 µM in test [8].
Regarding `S=c1nc(N/N=C/c2ccco2)c2cn[nH]c2[nH]1`, the GI50 was 3.23 µM in test [1]; 98.1 µM in [2]; 24.7 µM in test [10]; 51 µM in test [3]; over 100 µM in test [4]; 2.2 µM in test [5]. The GI50 in test [6] is 50 µM; in [7], 25 µM; in test [8], 48.4 µM. The TGI in test [1] was 22.5 µM; in test [2], over 100 µM; in [10], over 100 µM; in test [3], over 100 µM; in test [4] it was over 100 µM; in test [5], over 100 µM. Moreover, the TGI in test [6], in [7] and in test [8] was over 100 µM in each case.
For the molecule `COC(=O)CC(NC(=O)OCc1ccccc1)C(C(=O)OCc1ccccc1)C(C)(OC)OC` (stereo unspecified), the TGI was over 100 µM in test [1]; 68.7 µM in test [2]; over 100 µM in [9]; over 100 µM in test [3]; over 100 µM in test [4]; 65.4 µM in test [5]. The TGI in test [6], in [7] and in [8] was over 100 µM in each case.
For `Cc1cc(N=C2C=C(Br)C(=O)C(Br)=C2)cc(CN(CC(=O)O)CC(=O)O)c1O`, the TGI in [1], in [2], in test [9], in [3], in test [4] and in test [5] was over 100 µM each time. Moreover, the TGI in test [6], in test [7] and in test [8] was over 100 µM throughout.
As to `CCCCCCCCNCCC[C@@H](C)[C@H]1CC[C@H]2[C@@H]3[C@H](OCCCN)C[C@H]4C[C@H](OCCCN)CC[C@]4(C)[C@H]3C[C@H](OCCCN)[C@]12C`, the GI50 in [1] is 21.3 µM; in test [2] it was 1.49 µM; in [9] it was 1.71 µM; in [3] it was 2.01 µM; in test [4] it was 2.02 µM; in test [5], 1.89 µM. Also, the GI50 in [6] is 3.39 µM; in [7], 0.87 µM; in test [8], 1.5 µM. Also, the TGI in test [1] stood at 54.5 µM; in test [2], 3.72 µM; in [9], 7.59 µM; in test [3], 6.65 µM; in test [4], 6.41 µM; in [5], 4.27 µM. The TGI in test [6] was 16.9 µM; in test [7], 2.61 µM; in test [8] it was 3.7 µM.
Regarding `Cc1cccc(C)c1NC(=O)CCc1nc(=S)[nH][nH]1`, the TGI in test [1], in test [2], in [3], in test [4], in test [5] and in test [6] was over 100 µM each time. Moreover, the TGI in test [7] and in test [8] was over 100 µM each time.
Consider `CC(=O)O[C@]1(C)OC(=O)[C@@H](CC(C)C)N1[N+](=O)[O-]`, for which the TGI in test [1], in [2], in test [9], in test [10], in test [3] and in test [4] was over 100 µM in each case. For the same molecule, the TGI in [5], in [6] and in test [7] was over 100 µM in each case.
Take `Cc1ccc(S(=O)(=O)c2nc(-c3ccccc3)oc2S(C)=O)cc1` (stereo unspecified): the GI50 in [1] is 4.23 µM; in test [2] it was 1.26 µM; in test [9] it was 1.81 µM; in test [10] it was 1.95 µM; in [3], 1.72 µM; in [4], 1.52 µM. For the same molecule, the figures for the GI50 in test [5], in [7] and in [8] were 2.77 µM, 1.49 µM and 2.14 µM, respectively. For the same molecule, the TGI came out at 13.6 µM in test [1]; 2.53 µM in test [2]; 5.03 µM in test [9]; 3.86 µM in test [10]; 3.4 µM in test [3]; 2.88 µM in test [4]. Further, the TGI in test [5] came out at 8.08 µM; in test [7], 2.89 µM; in test [8], 4.14 µM.
